Measured values reported in patent US5958965A, “4-aminoethoxy indoles” (American Home Products Corporation, priority 1997, dated 1999).
Like-named read-outs stand apart in the source and are kept apart here.

Key:
[1] = target: T1, 5-HT1A serotonin receptor (Rattus norvegicus, UniProt P19327); assay: Displacement of [3H] 8-OHDPAT from the 5-HT1A serotonin receptor; assay type: binding
T1 sequence (P19327 1-422): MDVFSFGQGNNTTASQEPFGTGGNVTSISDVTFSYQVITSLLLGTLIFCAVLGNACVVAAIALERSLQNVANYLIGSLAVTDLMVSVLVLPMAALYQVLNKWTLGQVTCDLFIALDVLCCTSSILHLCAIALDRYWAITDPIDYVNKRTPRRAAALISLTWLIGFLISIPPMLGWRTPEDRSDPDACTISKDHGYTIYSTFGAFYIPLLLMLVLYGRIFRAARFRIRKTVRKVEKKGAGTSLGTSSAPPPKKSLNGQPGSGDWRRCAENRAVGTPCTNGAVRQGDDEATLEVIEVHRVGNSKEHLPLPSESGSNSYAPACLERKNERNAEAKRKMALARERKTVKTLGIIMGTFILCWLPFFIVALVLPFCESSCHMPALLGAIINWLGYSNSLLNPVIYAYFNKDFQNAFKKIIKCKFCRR
Description: High affinity for the serotonin 5-HT1A receptor was established by testing the claimed compound's ability to displace [^3 H] 8-OHDPAT (dipropylaminotetralin) from the 5-HT1A serotonin receptor following the procedure of Hall et al., J. Neurochem. 44, 1685 (1985). […] The anxiolytic activity of buspirone is believed to be, at least partially, due to its 5-HT1A receptor affinity (Vander Maclen et al., Eur. J. Pharmacol. 1986, 129 (1-2) 133-130).

[2] = target: T2, dopamine D-2 receptor (Rattus norvegicus, UniProt P61169); assay: Affinity for the dopamine D-2 receptor, 3H-spiroperidol binding in homogenized limbic brain tissue
T2 construct: homogenized limbic brain tissue is incubated with; from tissue; host or cells: limbic brain tissue, homogenized

[3] = target: T1, 5-HT1A serotonin receptor; conditions: standard for anxiolytic activity, comparison substance; cited from earlier work
[4] = 3H-spiroperidol, limbic brain tissue, read-out: IC50 D2 Spiper

T2 sequence (P61169 whole entry): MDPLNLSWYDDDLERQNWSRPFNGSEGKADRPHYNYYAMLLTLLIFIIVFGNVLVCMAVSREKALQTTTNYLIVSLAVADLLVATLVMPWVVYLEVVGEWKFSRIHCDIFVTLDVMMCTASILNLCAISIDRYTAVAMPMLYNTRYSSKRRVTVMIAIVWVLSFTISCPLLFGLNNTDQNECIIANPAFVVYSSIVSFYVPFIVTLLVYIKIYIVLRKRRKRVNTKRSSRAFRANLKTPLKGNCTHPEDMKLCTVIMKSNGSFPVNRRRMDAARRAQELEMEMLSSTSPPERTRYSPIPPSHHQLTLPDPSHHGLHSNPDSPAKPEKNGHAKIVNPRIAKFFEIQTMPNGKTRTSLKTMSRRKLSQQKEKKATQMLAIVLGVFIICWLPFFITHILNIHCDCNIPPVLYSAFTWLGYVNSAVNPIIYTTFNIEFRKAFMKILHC

SMILES	IC50 [1] [µM]	IC50 [2] [µM]	IC50 [2, 4] [µM]	affinity for the 5-HT1A serotonin receptor [3]
c1ccc(CCCCNCCOc2cccc3[nH]ccc23)cc1 [Example 1a, [2-(1 H-Indol-4-yloxy)-ethyl]-(4-phenyl-butyl)-amine]	0.00071	0.184	–	–
Clc1ccc(OCCNCc2ccccc2)c2cc[nH]c12 [Example 1b, Benzyl-[2-(7-chloro-1H-indol-4-yloxy)-ethyl]-amine]	0.386	0.183	–	–
Clc1ccc(OCCNCc2ccccc2)c2c(Cl)c[nH]c12 [Example 1c, Benzyl-[2-(3,7-dichloro-1H-indol-4-yloxy)-ethyl]-amine]	0.438	–	0.284	–
Clc1ccc(OCCNCc2cccs2)c2c(Cl)c[nH]c12 [Example 1f, Thien-2-ylmethyl-[2-(3,7-dichloro-1H-indol-4-yloxy)-ethyl]-amine]	–	–	0.405	–
Clc1c[nH]c2cccc(OCCNCCCCc3ccccc3)c12 [Example 2a, [2-(3-Chloro-1H-indol-4-yloxy)-ethyl]-(4-phenyl-butyl)-amine]	0.00099	–	0.193	–
O=C(c1c[nH]c2c(Cl)ccc(OCCNCc3ccccc3)c12)C(F)(F)F [Example 2c, 1-[4-(2-Benzylamino-ethoxy)-7-chloro-1H-indol-3-yl]-2,2,2-trifluoro-ethanone]	0.102	–	–	–
O=C(c1c[nH]c2cccc(OCCNCc3ccccc3)c12)C(F)(F)F [Example 3a, 1-[4-(2-Benzylamino-ethoxy)-1H-indol-3-yl]-2,2,2-trifluoro-ethanone]	0.06	–	0.286	–
c1ccc(CNCCOc2cccc3[nH]ccc23)cc1 [Example 3b, N-Benzyl-[2-(1H-indol-4-yloxy)]-ethylamine]	0.036	0.501	–	–
O=C1CC2(CCCC2)CC(=O)N1CCCCN1CCN(c2ncccn2)CC1 [buspirone]	–	–	–	potent affinity
